Values quoted from earlier work, collected in patent US9889150B2, “Agents for the prevention and/or treatment of central nervous system damage” (The University Of Liverpool, priority 2012, dated 2018).

Tests used:
OECs and astrocytes = conditions: previous work; cited from earlier work
FGFR3 = FGFR3 (Homo sapiens, UniProt P22607); conditions: cited from earlier work
FGFR3, sequence (P22607 23-806, species assumed): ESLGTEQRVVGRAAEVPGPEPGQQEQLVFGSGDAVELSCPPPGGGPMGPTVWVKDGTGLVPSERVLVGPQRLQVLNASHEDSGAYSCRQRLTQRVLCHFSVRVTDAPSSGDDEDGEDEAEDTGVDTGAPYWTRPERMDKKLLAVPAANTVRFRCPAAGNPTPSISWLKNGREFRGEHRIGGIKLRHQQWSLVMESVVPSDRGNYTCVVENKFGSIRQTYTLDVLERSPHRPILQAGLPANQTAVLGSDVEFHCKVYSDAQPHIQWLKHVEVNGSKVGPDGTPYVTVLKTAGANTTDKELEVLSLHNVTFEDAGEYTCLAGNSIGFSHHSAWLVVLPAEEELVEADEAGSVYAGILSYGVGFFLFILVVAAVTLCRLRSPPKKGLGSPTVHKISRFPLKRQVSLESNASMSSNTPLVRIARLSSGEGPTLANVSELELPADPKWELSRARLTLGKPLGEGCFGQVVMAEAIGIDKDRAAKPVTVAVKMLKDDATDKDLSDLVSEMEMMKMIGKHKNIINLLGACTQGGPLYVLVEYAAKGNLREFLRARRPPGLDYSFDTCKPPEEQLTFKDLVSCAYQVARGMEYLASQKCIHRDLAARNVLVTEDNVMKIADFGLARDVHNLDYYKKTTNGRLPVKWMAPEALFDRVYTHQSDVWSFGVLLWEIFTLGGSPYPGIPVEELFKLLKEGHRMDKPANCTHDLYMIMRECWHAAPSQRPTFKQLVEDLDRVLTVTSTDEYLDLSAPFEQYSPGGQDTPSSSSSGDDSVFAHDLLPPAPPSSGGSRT

In the case of Cc1c[nH]c(/C=C2\C(=O)Nc3ccccc32)c1CCC(=O)O [SU5402], the “SCM-induced boundary formation in OEC/astrocyte cultures” value (OECs and astrocytes) is given as “disrupts SCM-induced boundary formation” and the “inhibition of FGFR3” value (FGFR3) is given as “effectively inhibit FGFR3”.
